In BindingDB's records for doi:10.1002/ps.1855 (2010):

target: Cytochrome b6-f complex subunit 4 (Spinacia oleracea, UniProt P00166); experiment: Inhibition of photosynthetic electron transport protein complex in Spinacia oleracea (spinach) leaf thylakoid membranes measured at 30 seconds intervals for 10 min
Sequence (P00166 whole entry, one chain of several): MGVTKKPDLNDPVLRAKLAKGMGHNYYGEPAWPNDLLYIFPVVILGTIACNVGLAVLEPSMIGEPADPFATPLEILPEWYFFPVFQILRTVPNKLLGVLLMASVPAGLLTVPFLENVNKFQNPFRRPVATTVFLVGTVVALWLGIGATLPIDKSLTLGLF

`O=C1O/C(=C\c2ccc(O)cc2)C=C1Cc1ccccc1` and `O=C1O/C(=C\c2ccc(Br)cc2)C=C1Cc1ccccc1` cannot be ordered by IC50: over 200 µM for the first, over 200 µM for the second.

`O=C1O/C(=C\c2ccc(C(F)(F)F)cc2)C=C1Cc1ccccc1` and `O=C1O/C(=C\c2cccc(C(F)(F)F)c2)C=C1Cc1ccccc1` are within 1.5-fold of each other in IC50: 8.3 µM for the first, 10 µM for the second.

First: O=C1O/C(=C\c2ccc([N+](=O)[O-])cc2)C=C1Cc1ccccc1
Second: Cc1ccc(/C=C2/C=C(Cc3ccccc3)C(=O)O2)cc1
The IC50 of the first is lower: 1.7 µM for the first, over 200 µM for the second.

Compared with `O=C1O/C(=C\c2ccccc2O)C=C1Cc1ccccc1`, `Cc1ccccc1/C=C1/C=C(Cc2ccccc2)C(=O)O1` is lower in IC50: over 200 µM for the first, 23.5 µM for the second. The second is the more potent here.

Going from `COc1ccc(/C=C2/C=C(Cc3ccccc3)C(=O)O2)cc1` to `O=C1O/C(=C\c2ccc(Cl)cc2)C=C1Cc1ccccc1`, the IC50 rises from 53.7 µM to over 200 µM.

`N#Cc1ccc(/C=C2/C=C(Cc3ccccc3)C(=O)O2)cc1` and `N#Cc1cccc(/C=C2/C=C(Cc3ccccc3)C(=O)O2)c1` cannot be ordered by IC50: over 200 µM for the first, over 200 µM for the second.

Compared with `O=C1O/C(=C\c2ccc(-c3ccccc3)cc2)C=C1Cc1ccccc1`, `O=C1O/C(=C\c2ccccc2)C=C1Cc1ccccc1` is lower in IC50: over 200 µM for the first, 19.7 µM for the second. The second is the more potent here.

`O=C1O/C(=C\c2cccc(O)c2)C=C1Cc1ccccc1` and `COc1ccc(/C=C2/C=C(Cc3ccccc3)C(=O)O2)cc1O` cannot be ordered by IC50: over 200 µM for the first, over 200 µM for the second.

Compared with `O=C1O/C(=C\c2ccc3c(c2)OCO3)C=C1Cc1ccccc1`, `O=C1O/C(=C\c2ccccc2F)C=C1Cc1ccccc1` is lower in IC50: over 200 µM for the first, 10.1 µM for the second. The second is the more potent here.

First: COc1ccc(OC)c(/C=C2/C=C(Cc3ccccc3)C(=O)O2)c1
Second: O=C1O/C(=C\c2ccccc2C(F)(F)F)C=C1Cc1ccccc1
The IC50 of the first is 1.6-fold higher: 19.4 µM for the first, 11.8 µM for the second.

target: not listed separately; experiment: Inhibition of photosynthetic electron transport protein complex in Spinacia oleracea (spinach) leaf thylakoid membranes measured at 30 seconds intervals for 10 min

First: O=C1O/C(=C\c2cccc(F)c2)C=C1Cc1ccccc1
Second: O=C1O/C(=C\c2cccc(Br)c2)C=C1Cc1ccccc1
The IC50 of the first is 8.3-fold lower: 20.5 µM for the first, 170 µM for the second.

Going from `COc1cc(OC)c(/C=C2\C=C(Cc3ccccc3)C(=O)O2)c(OC)c1` to `Cc1cccc(/C=C2/C=C(Cc3ccccc3)C(=O)O2)c1`, the IC50 rises from 12.7 µM to 73.8 µM (5.8-fold). The first is the more potent here.

Going from `CN(C)c1ccc(/C=C2/C=C(Cc3ccccc3)C(=O)O2)c(Cl)c1` to `CN(C)c1cccc(/C=C2/C=C(Cc3ccccc3)C(=O)O2)c1`, the IC50 falls from over 200 µM to 13.3 µM. The second is the more potent here.

First: CN(C)c1ccc(/C=C2/C=C(Cc3ccccc3)C(=O)O2)cc1
Second: O=C1O/C(=C\c2ccc(F)cc2)C=C1Cc1ccccc1
The IC50 of the first is higher: over 200 µM for the first, 21.9 µM for the second.

First: O=C1O/C(=C\c2cccc(Cl)c2)C=C1Cc1ccccc1
Second: O=C1O/C(=C\c2cccc([N+](=O)[O-])c2)C=C1Cc1ccccc1
The IC50 of the first is 1.9-fold higher: 44.7 µM for the first, 23.1 µM for the second.

`O=C1O/C(=C\c2ccccc2Br)C=C1Cc1ccccc1` and `O=C1O/C(=C\c2ccccc2Cl)C=C1Cc1ccccc1` are within 1.5-fold of each other in IC50: 25.8 µM for the first, 19.1 µM for the second.

Compared with `O=C1O/C(=C\c2c(F)c(F)c(F)c(F)c2F)C=C1Cc1ccccc1`, `CCc1ccc(/C=C2/C=C(Cc3ccccc3)C(=O)O2)cc1` is 8.3-fold lower in IC50: 75.2 µM for the first, 9.1 µM for the second. The second is the more potent here.
